Measured values: PMC9016704, “Dichlorophenylpyridine-Based Molecules Inhibit Furin through an Induced-Fit Mechanism” (ACS Chemical Biology, 2022)
Read-outs that look alike come from different tables or passages of the source. Non-standard residues stand in square brackets, D forms with d. Residues, ends and D or L forms follow the SMILES beside them. *: point of attachment. AMC = Cc1cc(=O)oc2cc(N*)ccc12; pGlu = O=C1CC[C@@H](C(=O)O)N1

Experiments:
furin [1] = biological target: T1, furin (Homo sapiens, UniProt P09958); assay: biochemical
Target sequence in this assay (P09958 108-794): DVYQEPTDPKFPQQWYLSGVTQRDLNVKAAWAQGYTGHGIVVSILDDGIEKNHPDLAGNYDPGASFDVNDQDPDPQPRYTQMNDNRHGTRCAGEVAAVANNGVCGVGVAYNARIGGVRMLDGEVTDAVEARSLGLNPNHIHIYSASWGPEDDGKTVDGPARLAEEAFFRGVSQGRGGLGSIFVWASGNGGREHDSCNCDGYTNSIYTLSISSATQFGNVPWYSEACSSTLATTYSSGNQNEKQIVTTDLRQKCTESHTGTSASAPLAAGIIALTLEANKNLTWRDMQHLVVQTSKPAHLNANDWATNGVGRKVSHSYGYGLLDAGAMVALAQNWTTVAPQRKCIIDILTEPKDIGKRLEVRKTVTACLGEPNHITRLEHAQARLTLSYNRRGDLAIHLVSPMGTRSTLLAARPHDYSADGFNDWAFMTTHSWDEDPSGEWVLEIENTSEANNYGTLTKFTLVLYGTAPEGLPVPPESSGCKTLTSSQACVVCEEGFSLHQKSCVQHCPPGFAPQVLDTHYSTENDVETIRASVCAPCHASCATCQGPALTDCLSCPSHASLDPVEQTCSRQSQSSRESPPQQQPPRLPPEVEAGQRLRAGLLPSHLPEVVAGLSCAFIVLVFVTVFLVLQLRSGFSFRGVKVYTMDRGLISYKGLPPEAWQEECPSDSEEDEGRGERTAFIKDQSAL

furin [2] = biological target: T1, furin; assay: Surface plasmon resonance binding to immobilized furin; settings: for koff: read-out: koff Mean ± SD; for kon: read-out: kon Mean ± SD; for residence time: reciprocal of the mean koff, read-out: residence time τ
Procedure: As the (3,5-dichlorophenyl)pyridine derivatives bind tightly to furin, we used single-cycle kinetic experiments to determine their off-rates.[18] […]
SPR-experiments. 1, 3 and hexa-D-Arginine 14 were dissolved to a 10 mM stock solution in DMSO. This stock solution was initially diluted 100-fold in running buffer (10 mM HEPES pH 7.5, 100 mM NaCl, 2 mM CaCl2; 0.05% Tween; 1% DMSO) to a concentration of 100 µM and 1% DMSO. The stock solution in 1% DMSO was then further diluted in running buffer with […]
Furin was immobilized onto a NTA-chip after pre-loading with Ni2+ using standard procedures.
Immobilization levels of furin were in the range of 6000-6500 RU. Binding studies were performed with a Biacore T200 SPR system at 25°C in 10 mM HEPES pH 7.5, 100 mM NaCl, 2 mM CaCl2; 0.05% (v/v) Tween 20, and 1% (v/v) DMSO. Inhibitor 1 and 3 concentrations were […]
and 500 nM. Binding studies for 1 and 3 were performed in the single-cycle kinetic mode using […]
Target sequence in this assay (P09958 108-794): as above

furin [3] = system: furin; parameters: method as in earlier work; settings: enzyme kinetics measurements; cited from earlier work
furin [4] = system: furin; parameters: method as in earlier work; settings: cell-based inhibition assays; cited from earlier work
furin [5] = biological target: T1, furin; assay: MALDI-TOF-MS-based furin activity assay, TGFβ-derived substrate; type: biochemical; parameters: made in house
Target sequence in this assay (P09958 108-574 limits assumed): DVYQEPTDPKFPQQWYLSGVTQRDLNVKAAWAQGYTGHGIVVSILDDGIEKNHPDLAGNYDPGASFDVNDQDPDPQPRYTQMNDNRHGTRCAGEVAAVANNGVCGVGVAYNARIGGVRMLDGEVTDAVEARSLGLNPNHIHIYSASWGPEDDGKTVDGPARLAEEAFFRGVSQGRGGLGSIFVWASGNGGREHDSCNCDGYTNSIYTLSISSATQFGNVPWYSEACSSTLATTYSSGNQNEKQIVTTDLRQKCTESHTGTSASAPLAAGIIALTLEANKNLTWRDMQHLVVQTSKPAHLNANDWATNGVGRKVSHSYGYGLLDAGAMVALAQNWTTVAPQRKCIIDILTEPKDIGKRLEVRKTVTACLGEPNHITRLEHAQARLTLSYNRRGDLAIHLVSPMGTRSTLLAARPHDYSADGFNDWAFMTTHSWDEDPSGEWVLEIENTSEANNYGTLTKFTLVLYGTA

furin [6] = biological target: T1, furin; assay: Enzyme kinetic assay with fluorogenic substrate pERTKR-AMC; type: biochemical; parameters: made in house
Procedure: To determine the inhibition mode for compound 1, we performed enzyme kinetic assays with the fluorogenic PC substrate pyr-ERTKR-7-amino-4-methylcoumarin (pERTKR-AMC).
Additionally, internal calibration was performed using the monoisotopic peak of the respective […]
MALDI-TOF data, processed with flexAnalysis or MALDI Pharma Pulse, were exported as a comma delimited (.csv) file. Datasets were further processed with either GraphPad Prism (v9.00; GraphPad Software, La Jolla, CA) or in-house laboratory information management system (LIMS) software. Furin activity was tracked by analyzing the measured intensity for the enzymatic product as well as for the corresponding internal standard. Average control values were calculated and set to 100% activity (high controls) and 0% activity (low controls) while the response values of compound-containing wells were normalized against the controls and expressed as percentage of control (PoC). Determination of compound potencies was obtained by fitting the dose-response data to a four-parameter logistical equation.
Enzyme kinetics. Enzyme kinetic measurements were performed in 100 mM HEPES pH 7.5, 1 mM CaCl2, 0.01% (w/v) BSA, 0.001% (v/v) Tween20 with the fluorogenic substrate pyr-ERTKR-7-amino-4-methylcoumarin (pERTKR-AMC, Bachem) and 0.5 nM furin at 24°C. The reactions (100 µl) were initiated by addition of the substrate in 96-well black half area plates (Corning), pre-incubated for 30 min at 24°C and measured for 40 min in a 96-well plate reader (Tecan Infinite 200) at excitation and emission wavelengths of 380 nm and 460 nm, respectively. The Km value of pERTKR-AMC with furin was determined with 1:2 serial dilution series of the substrate from 100 µM to 0.78 µM. To investigate the inhibition mode of 1 with furin, 1:2 serial inhibitor dilution series were prepared in the concentration range between 100 nM and 0.78 nM and the reaction velocity was determined in presence of 4.4 µM, 8.9 µM and 13.3 µM pERTKR-AMC. Enzyme kinetic data were evaluated with GraphPad Prism. Km was calculated with the prebuild “Michaelis-Menten” model. […]
Target sequence in this assay (P09958 108-574 limits assumed): as above

furin [7] = biological target: T1, furin; assay: Protein thermostability measurement by nanoDSF; type: binding; parameters: made in house; settings: for Tm #1 / Tm #2 / Tm Mean: furin-inhibitor complex; for Tm #1: replicate #1; for Tm #2: replicate #2; for Tm Mean: ligand-free furin 57.7 ± 0.1; for ΔTm: gain versus ligand-free furin
Text: Interactions of inhibitors with furin increased the structural stability of the protease–inhibitor complexes compared with the ligand-free protease, which was indicated by an increase in the melting temperature (Tm).[23] We investigated the impact of the (3,5-dichlorophenyl)pyridine-based compounds on the structural stability of furin using differential scanning fluorimetry (nanoDSF[24]). […] The gain in Tm correlated well with the measured pIC50 (i.e., −log10(IC50)) values (Figure 2B), as reported for substrate-like inhibitors.[10],[25] […]
Protein thermostability measurement by nanoDSF. The thermostablity of furin-inhibitor complexes was further assessed by nanoDSF.16 In nanoDSF, protein unfolding was monitored by the change of the intrinsic fluorescence of the protein, mainly from tryptophan and tyrosine residues in the protein. 10 ul 0.2 mg mL-1 (3.8 µM) protein solutions (10mM Hepes/NaOH pH 7.5; 100 mM NaCl; 2 mM CaCl2) were loaded into nanoDSF grade standard capillaries (NanoTemper Technologies). The samples were heated up with a ramp rate of 1 °C min-1 over a temperature range of 20-95 °C. The thermal unfolding profiles of the proteins were recorded using the Prometheus NT.48 instrument (NanoTemper Technologies). Measurements were performed in duplicate. Unfolding transition temperatures (Tm) were automatically determined by the instrument software.
Target sequence in this assay (P09958 108-574 limits assumed): as above

[8] = system: Total TGFβ production in the lung; parameters: method as in earlier work; settings: cited from earlier work; for Total TGFβ production in the lung reduced by: 10 mg/kg of body weight; for bioavailability: bleomycin-induced lung fibrosis mouse model
furin [9] = system: furin; parameters: method as in PMID 10958789; settings: read-out: IC50 (literature); cited from earlier work
[10] = 25°C, hexa-D-Arg: multicycle, poor curve fit, read-out: KD Mean ± SD
[11] = TGFβ substrate, replicate #1, read-out: IC50 #1
[12] = TGFβ substrate, replicate #2, read-out: IC50 #2
[13] = TGFβ substrate, replicate #3, read-out: IC50 #3
[14] = TGFβ-derived substrate 2.5 µM, 0.02 nM furin, read-out: IC50 Mean ± SD
[15] = injected intraperitoneally, mice

Molecule | IC50 (furin [5]; [14]) [nM] | Kd (furin [2]; [10]) [nM] | Kd (furin [2]; replicate #1, read-out: KD #1) [nM] | Kd (furin [2]; replicate #2, read-out: KD #2) [nM] | Kd (furin [2]; replicate #3, read-out: KD #3) [nM] | IC50 (furin [3]) [nM] | IC50 (furin [4]) [nM] | Tm #1 (furin [7]) [°C] | Tm #2 (furin [7]) [°C] | Tm Mean (furin [7]) [°C] | ΔTm (furin [7]) [°C] | bioavailability ([8]; in words) | other results
COCCN1CCN(c2ccc(Oc3cc(CN4CCC(CNC(C)=O)CC4)cc(-c4cc(Cl)cc(Cl)c4)n3)cn2)CC1 [Inhibitor 1] | 2.3 | 28 ± 13 | 48.7 | 24.7 | 26.1 | 1.3 | 0.8 | 68.5 | 68.4 | 68.4 | 10.8 | – | IC50 (furin [1]; IC50 #1): 1 nM; IC50 (furin [1]; IC50 #2): 1.1 nM; koff (furin [2]; 25°C, single-cycle kinetic): 0.00018 s⁻¹; kon (furin [2]; 25°C, single-cycle kinetic): 4600 ± 2500 M⁻¹ s⁻¹; residence time (furin [2]): 92 min; kon #1 (furin [2]; replicate #1): 4531 [Ms]-1; kon #2 (furin [2]; replicate #2): 3563 [Ms]-1; kon #3 (furin [2]; replicate #3): 8463 [Ms]-1; IC50 (furin [5]; [11]): 2.6 nM; IC50 (furin [5]; [12]): 2.4 nM; IC50 (furin [5]; [13]): 2 nM; inhibition mode (furin [6]; Dixon plot, pERTKR-AMC 4.4-13.3 μM): competitive; Ki (furin [6]; competitive model, pERTKR-AMC 4.4, 8.9 and 13.3 µM, 0.5 nM furin): 3.8 ± 0.8 nM
CC(=O)NCC1CCN(Cc2cc(Oc3cnc(N4CCN(CCC(=O)O)CC4)nc3)nc(-c3cc(Cl)cc(Cl)c3)c2)CC1 [Inhibitor 3] | 1.8 | 3.1 ± 1.6 | 2.76 | 5.07 | 1.31 | 0.16 | 10 | 68.7 | 68.5 | 68.6 | 10.9 | comparably high | IC50 (furin [1]; IC50 #1): 0.5 nM; IC50 (furin [1]; IC50 #2): 1 nM; IC50 (furin [1]; IC50 Mean): 0.8 nM; koff (furin [2]; 25°C, single-cycle kinetic): 0.00031 s⁻¹; kon (furin [2]; 25°C, single-cycle kinetic): 96000 M⁻¹ s⁻¹; residence time (furin [2]): 53.7 min; Total TGFβ production in the lung reduced by [8, 15]: 86%; IC50 (furin [5]; [11]): 2 nM; IC50 (furin [5]; [12]): 2.3 nM; IC50 (furin [5]; [13]): 1.2 nM
N=C(N)NCCC[C@@H](N)C(=O)N[C@H](CCCNC(=N)N)C(=O)N[C@H](CCCNC(=N)N)C(=O)N[C@H](CCCNC(=N)N)C(=O)N[C@H](CCCNC(=N)N)C(=O)N[C@H](CCCNC(=N)N)C(N)=O [hexa-D-arginine, reference compound] | – | 530 ± 320 | 437 | 966 | 200 | – | – | 59.3 | 59.2 | 59.3 | 1.6 | – | IC50 (furin [1]; IC50 Mean): 126 nM; koff Mean ± SD (furin [2]; 25°C, single-cycle kinetic): fast off-rate; IC50 (furin [9]): 106 nM; IC50 (furin [5]; IC50 #1, TGFβ substrate, replicate #1): 207 nM; IC50 (furin [5]; IC50 #2, TGFβ substrate, replicate #2): 64.2 nM; IC50 (furin [5]; IC50 #3, TGFβ substrate, replicate #3): 184 nM; IC50 (furin [5]; IC50 Mean ± SD, TGFβ-derived substrate 2.5 µM, 0.02 nM furin): 152 ± 77 nM
Cc1cc(=O)oc2cc(NC(=O)[C@H](CCCNC(=N)N)NC(=O)[C@H](CCCCN)NC(=O)[C@@H](NC(=O)[C@H](CCCNC(=N)N)NC(=O)[C@@H]3CCC(=O)N3)[C@@H](C)O)ccc12 [pERTKR-AMC, pyr-ERTKR-7-amino-4-methylcoumarin] ([pGlu]RTKR-{AMC}) | – | – | – | – | – | – | – | – | – | – | – | – | Km (furin [6]; Km of substrate pERTKR-AMC with furin): 9.6 µM
AQHLQSSRHRRALDTNY [TGFβ, peptide substrate surrogate derived from TGFβ] | – | – | – | – | – | – | – | – | – | – | – | – | Km (furin [5]; assay-specific apparent Km of the TGFβ-derived peptide substrate, read-out: Km,app): 1800 nM

Further lines, with some results ahead:

IC50 (furin [5]; [14]) [nM] | Molecule | Kd (furin [2]; [10]) [nM] | Kd (furin [2]; replicate #1, read-out: KD #1) [nM] | Kd (furin [2]; replicate #2, read-out: KD #2) [nM] | Kd (furin [2]; replicate #3, read-out: KD #3) [nM] | IC50 (furin [3]) [nM] | IC50 (furin [4]) [nM] | Tm #1 (furin [7]) [°C] | Tm #2 (furin [7]) [°C] | Tm Mean (furin [7]) [°C] | ΔTm (furin [7]) [°C] | bioavailability ([8]; in words) | other results
1.3 | CC(=O)NCC1CCN(Cc2cc(Oc3cnc(N4CCN(CCC(C)C(=O)O)CC4)nc3)nc(-c3cc(Cl)cc(Cl)c3)c2)CC1 (centres unmarked) [Inhibitor 2] | – | – | – | – | 0.5 | 5 | 69.4 | 69.2 | 69.3 | 11.6 | comparably high | Total TGFβ production in the lung reduced by ([8]; oral, mice): 75%; oral availability ([8]; mice, in words): orally available
2.6 | CC(=O)NCC1CCN(Cc2cc(Oc3ccc(N4CCN(CCC(=O)O)CC4)nc3)nc(-c3cc(Cl)cc(Cl)c3)c2)CC1 [Inhibitor 4] | – | – | – | – | 0.25 | 25.1 | 68.3 | 68.2 | 68.3 | 10.5 | comparably high | Total TGFβ production in the lung reduced by [8, 15]: 69%
78 | CN1CCN(c2ncc(Oc3cc(CN4CCC(OCC(=O)O)C4)cc(-c4cc(Cl)cc(Cl)c4)n3)cn2)CC1 (centres unmarked) [Inhibitor 5] | – | – | – | – | 13 | 630 | 61.8 | 61.8 | 61.8 | 4.0 | – | –
